Reference: ChEMBL document CHEMBL6120978, “Anticancer activity of salinomycin quaternary phosphonium salts” (Eur J Med Chem, 2025)
The source made the active and inactive calls. The rule behind the calls is not given here.

Legend:
[1] = tested on: SW480; experiment: Cytotoxicity against human SW480 cells incubated for 72 hrs by MTT assay; assay type: functional, cell-based; settings: SW480, 72 h
[2] = Cytotoxicity against human HaCaT cells incubated for 72 hrs by MTT assay; assay type: toxicity, cell-based
[3] = Cytotoxicity against chinese hamster V79 cells incubated for 72 hrs by MTT assay; assay type: toxicity, cell-based, Cricetulus griseus
[4] = Selectivity index, ratio of IC50 for cytotoxicity against chinese hamster V79 cells to IC50 for cytotoxicity against human SW480 cells; assay type: toxicity, cell-based; settings: V79 cells versus SW480 cells, read-out: Ratio IC50
[5] = Selectivity index, ratio of IC50 for cytotoxicity against chinese hamster V79 cells to IC50 for cytotoxicity against human SW620 cells; assay type: toxicity, cell-based; settings: V79 cells versus SW620 cells, read-out: Ratio IC50
[6] = Selectivity index, ratio of IC50 for cytotoxicity against chinese hamster V79 cells to IC50 for cytotoxicity against human PC-3 cells; assay type: toxicity, cell-based; settings: V79 cells versus PC-3 cells, read-out: Ratio IC50
[7] = tested on: A549; experiment: Effect on mitochondrial mass in human A549 cells assessed as fold increase in mean fluorescence intensity at IC50 incubated for 48 hrs by MitoTracker Green FM staining based flow cytometry analysis relative to control; assay type: functional
[8] = tested on: MDA-MB-231; experiment: Effect on mitochondrial mass in human MDA-MB-231 cells assessed as fold increase in mean fluorescence intensity at IC50 incubated for 48 hrs by MitoTracker Green FM staining based flow cytometry analysis relative to control; assay type: functional
[9] = tested on: A549; experiment: Induction of cell cycle arrest in human A549 cells assessed as accumulation of cells at SubG1 phase at IC50 incubated for 24 hrs by propidium iodide staining based flow cytometry analysis (reference value: 0.71 %); assay type: functional
[10] = tested on: A549; experiment: Induction of cell cycle arrest in human A549 cells assessed as accumulation of cells at S phase at IC50 incubated for 24 hrs by propidium iodide staining based flow cytometry analysis (reference value: 21.6 %); assay type: functional
[11] = tested on: A549; experiment: Induction of apoptosis in human A549 cells assessed as viable cells at IC50 incubated for 72 hrs by Annexin V-FITC staining based flow cytometry analysis (reference value: 95.49 %); assay type: functional
[12] = tested on: A549; experiment: Induction of apoptosis in human A549 cells assessed as late apoptotic cells at IC50 incubated for 72 hrs by Annexin V-FITC staining based flow cytometry analysis (reference value: 1.86 %); assay type: functional
[13] = tested on: MDA-MB-231; experiment: Induction of apoptosis in human MDA-MB-231 cells assessed as necrotic cells at IC50 incubated for 72 hrs by Annexin V-FITC staining based flow cytometry analysis (reference value: 1.17 %); assay type: functional
[14] = tested on: Mitochondrial membrane; experiment: Induction of mitochondrial membrane potential loss in human MDA-MB-231 cells assessed as green fluorescence at IC50 incubated for 48 hrs MitoTracker Green FM staining based flow cytometry analysis (reference value: 8.86 %); assay type: cell membranes
[15] = tested on: A549; experiment: Induction of ROS generation of human A549 cells assessed as fold increase at IC50 incubated for 6 hrs by CellROX Green staining based spectrofluorometer analysis relative to control; assay type: functional
[16] = tested on: MDA-MB-231; experiment: Induction of ROS generation of human MDA-MB-231 cells assessed as fold increase at IC50 incubated for 6 hrs by CellROX Green staining based spectrofluorometer analysis relative to control; assay type: functional
[17] = tested on: Staphylococcus aureus; experiment: Antimicrobial activity against Staphylococcus aureus ATCC 25923 incubated for 18 hrs by twofold microdilution method; assay type: functional
[18] = tested on: Staphylococcus epidermidis; experiment: Antimicrobial activity against Staphylococcus epidermidis ATCC 35984 incubated for 18 hrs by twofold microdilution method; assay type: functional
[19] = tested on: A549; experiment: Induction of mitochondrial respiration in human A549 cells assessed as increase in oxygen consumption rate by Oxygraph-2K system; assay type: functional, cell-based
[20] = tested on: Lipid bilayer; experiment: Induction of ionic transport in azolectin bilayer membrane assessed as specific channel-like structure formation in presence of HEPES buffer by electrophysiology technique
[21] = tested on: Lipid bilayer; experiment: Induction of ionic transport in azolectin bilayer membrane assessed as irregular disturbance in membrane permeability in presence of HEPES buffer by electrophysiology technique
[22] = tested on: Lipid bilayer; experiment: Induction of ionic transport in azolectin bilayer membrane assessed as membrane rupture in presence of HEPES buffer by electrophysiology technique
[23] = tested on: A549; experiment: Induction of mitochondrial respiration in human A549 cells assessed as increase in oxygen consumption rate upto 10 uM by Oxygraph-2K system; assay type: functional, cell-based
[24] = tested on: Lipid bilayer; experiment: Induction of current generation in azolectin bilayer membrane in presence of HEPES buffer by electrophysiology technique

| Activity [14] [%] | MIC [17] [µg/mL] | MIC [18] [µg/mL] | Compound | IC50 [1] [nM] | IC50 at 72 h [2] [nM] | IC50 at 72 h [3] [nM] | selectivity ratio [4] | selectivity ratio [5] | selectivity ratio [6] | fold change (FC) [7] | fold change (FC) [8] | Activity [9] | Activity [10] | Activity [11] [%] | Activity [12] [%] | Activity [13] [%] | fold change (FC) [15] | fold change (FC) [16] | also measured |
| --- | --- | --- | --- | --- | --- | --- | --- | --- | --- | --- | --- | --- | --- | --- | --- | --- | --- | --- | --- |
| 70.7 | 2 | 2 | CCCC[P+](CCCC)(CCCC)CCCCOC(=O)[C@H](CC)[C@H]1CC[C@H](C)[C@H]([C@@H](C)[C@H](O)[C@H](C)C(=O)[C@H](CC)[C@H]2O[C@]3(C=C[C@@H](O)[C@]4(CC[C@@](C)([C@H]5CC[C@](O)(CC)[C@H](C)O5)O4)O3)[C@H](C)C[C@@H]2C)O1.[Br-] | 490 | 700 | 590 | 1.2 | 1.1 | 0.4 | 6 | 8 | Active | Active | 19.91 | 14.59 | 5.15 | 2 | 2 | Activity [19]: Active; Small Increase In Oxygen Consumption Rate Was Observed |
| 60.8 | 2 | 1 | CC[C@@H](C(=O)[C@@H](C)[C@@H](O)[C@H](C)[C@@H]1O[C@@H]([C@@H](CC)C(=O)OCCCC[P+](c2ccccc2)(c2ccccc2)c2ccccc2)CC[C@@H]1C)[C@H]1O[C@]2(C=C[C@@H](O)[C@]3(CC[C@@](C)([C@H]4CC[C@](O)(CC)[C@H](C)O4)O3)O2)[C@H](C)C[C@@H]1C.[Br-] | 390 | 1230 | 130 | 0.3 | 0.9 | 0.1 | 6 | 8 | 6% | 13.2% | 31.8 | 3.9 | 5.23 | 2 | 2 | Activity [20]: inactive; Activity [21]: inactive; Activity [22]: inactive; Activity [23]: Active; Activity [24]: Dose-dependent-effect |
